Laboratory results from patent US20160355475A1, “NOVEL INDOLE DERIVATIVE COMPOUND AND PHARMACEUTICAL COMPOSITION COMPRISING THE SAME” (CHONG KUN DANG PHARMACEUTICAL CORP., priority 2014, published 2016).

Legend:
[1] = target: T1, HDAC6 human recombinant (Homo sapiens, UniProt Q9UBN7); assay: HDAC6 enzyme activity inhibition (fluorimetric, in vitro); type: biochemical; details: 37° C., 60 minutes; tested at 0.1, 1, 10, 100 and 1000 nM
T1 construct: purchased Calbiochem 382180
T1 sequence (Q9UBN7 1-1215): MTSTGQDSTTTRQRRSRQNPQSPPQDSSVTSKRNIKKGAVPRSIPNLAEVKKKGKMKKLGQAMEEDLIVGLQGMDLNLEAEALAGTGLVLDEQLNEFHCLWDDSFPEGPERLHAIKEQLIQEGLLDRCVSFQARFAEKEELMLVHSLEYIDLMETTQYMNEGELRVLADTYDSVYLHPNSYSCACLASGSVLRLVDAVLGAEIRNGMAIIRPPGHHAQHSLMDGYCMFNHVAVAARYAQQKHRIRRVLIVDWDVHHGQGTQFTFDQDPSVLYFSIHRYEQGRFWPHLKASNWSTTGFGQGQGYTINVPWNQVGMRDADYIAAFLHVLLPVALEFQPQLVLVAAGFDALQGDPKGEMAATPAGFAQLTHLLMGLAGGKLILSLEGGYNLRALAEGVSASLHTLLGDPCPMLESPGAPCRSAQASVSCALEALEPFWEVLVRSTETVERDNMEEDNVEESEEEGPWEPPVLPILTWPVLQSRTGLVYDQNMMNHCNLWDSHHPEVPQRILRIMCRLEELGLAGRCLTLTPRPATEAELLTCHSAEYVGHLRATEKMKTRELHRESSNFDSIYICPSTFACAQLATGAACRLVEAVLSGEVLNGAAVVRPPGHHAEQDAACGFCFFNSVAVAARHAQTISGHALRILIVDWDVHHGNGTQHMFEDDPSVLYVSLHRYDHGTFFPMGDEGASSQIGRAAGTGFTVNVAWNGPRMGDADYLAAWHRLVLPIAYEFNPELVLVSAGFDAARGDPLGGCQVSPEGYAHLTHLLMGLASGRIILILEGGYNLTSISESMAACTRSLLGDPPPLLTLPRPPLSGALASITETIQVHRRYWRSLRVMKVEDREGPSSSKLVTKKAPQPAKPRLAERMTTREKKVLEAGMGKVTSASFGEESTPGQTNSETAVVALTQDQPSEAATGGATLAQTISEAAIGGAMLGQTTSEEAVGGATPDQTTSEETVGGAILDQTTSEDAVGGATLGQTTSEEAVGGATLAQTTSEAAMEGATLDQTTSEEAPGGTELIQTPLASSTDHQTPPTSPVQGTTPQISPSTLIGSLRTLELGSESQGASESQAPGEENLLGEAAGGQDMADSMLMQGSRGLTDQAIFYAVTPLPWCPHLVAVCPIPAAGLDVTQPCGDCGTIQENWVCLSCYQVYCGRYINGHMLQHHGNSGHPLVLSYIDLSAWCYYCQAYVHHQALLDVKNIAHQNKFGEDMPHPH
Summary of the method: (§1)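 Fluorimetric deacetylase assay using an HDAC1 kit and human recombinant HDAC6. Compounds tested at 100–10000 nM (HDAC1) or 0.1–1000 nM (HDAC6), reacted 60 min at 37 °C, then developer 30 min at 37 °C before fluorescence read. Values in μM.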

[2] = test system: tubulin acetylation (HDAC6); assay: Western blot of tubulin acetylation in RPMI8226 cells; type: cell-based; details: 24 hours, FIG. 1
Procedure: (§2) Specifically, RPMI8226 cells were seeded into a six-well plate at a density of 1.0×10^6 cells/well, and then treated with varying concentrations of compound 528. After 24 hours, protein was extracted from the cells using RIPA buffer and quantified by the Bradford method. 25 μg of the protein was added to sample buffer and electrophoresed on 4-12% gradient gel, and the gel was transferred to a nitrocellulose membrane for 50 minutes. The membrane was blocked in 5% skim milk solution for 1 hour. Anti-acetyl H3 antibody (1:2,000), anti-acetyl H4 antibody (1:5,000), anti-acetyl tubulin antibody (1:5,000) and anti-β-actin antibody (1:10,000) were added to 5% skim milk, and the membrane was immersed in the skim milk and allowed to react at 4° C. for 16 hours, after which it was washed three times with 1×TBS-T for 10 minutes each washing. IgG-HRP antibody (1:5,000) was added to the 5% skim milk, and the membrane was immersed in the skim milk and allowed to react at room temperature for 40 minutes, after which it was washed three times with 1×TBS-T for 10 minutes each washing. Detection was performed by LAS 3000 using ECL solution.

[3] = Distribution in brain tissue and plasma of ICR mice after oral administration; type: in vivo; details: mouse, 50 mg/kg PO, 0.5, 1 and 2 hours, LC-MS/MS, FIG. 2, read-out: concentration in the plasma tissue relative to that in the brain tissue
Procedure: The distribution of the compound of the present invention in the brain tissue of ICR mice was examined. Specifically, the compound of the present invention was administered orally (PO) to ICR mice at a dose of 50 mg/kg. At 0.5, 1 and 2 hours after administration, blood was collected from the orbital venous plexus of the mice. After the mice were euthanized, the brain tissue (including cerebral, cerebellar and medullar tissues) was extracted.
The blood was centrifuged at 13000 rpm for 4 minutes, and then 30 μL of plasma was collected, and an organic solvent (90 wt % acetonitrile in methanol) was added thereto to remove protein. Then, the solution was centrifuged, and the supernatant was collected.
In addition, saline was added to the isolated brain tissue, and homogenized using a homogenizer. From the homogenized dilution, 100 μL of a sample was taken, and an organic solvent (90 wt % acetonitrile in methanol) was added thereto to remove protein, after which the solution was centrifuged, and the supernatant was collected. The concentrations of the compound of the present invention in the pretreated plasma and brain tissue solutions were analyzed by LC-MS/MS.

[4] = target: T2, HDAC1 (Homo sapiens, UniProt Q13547); assay: HDAC1 enzyme activity inhibition (HDAC1 fluorimetric drug discovery assay kit); type: biochemical; details: 37° C., 60 minutes; tested at 100, 1000 and 10000 nM
T2 construct: purchased Enzolifesciences BML-AK511
T2 sequence (Q13547 whole entry): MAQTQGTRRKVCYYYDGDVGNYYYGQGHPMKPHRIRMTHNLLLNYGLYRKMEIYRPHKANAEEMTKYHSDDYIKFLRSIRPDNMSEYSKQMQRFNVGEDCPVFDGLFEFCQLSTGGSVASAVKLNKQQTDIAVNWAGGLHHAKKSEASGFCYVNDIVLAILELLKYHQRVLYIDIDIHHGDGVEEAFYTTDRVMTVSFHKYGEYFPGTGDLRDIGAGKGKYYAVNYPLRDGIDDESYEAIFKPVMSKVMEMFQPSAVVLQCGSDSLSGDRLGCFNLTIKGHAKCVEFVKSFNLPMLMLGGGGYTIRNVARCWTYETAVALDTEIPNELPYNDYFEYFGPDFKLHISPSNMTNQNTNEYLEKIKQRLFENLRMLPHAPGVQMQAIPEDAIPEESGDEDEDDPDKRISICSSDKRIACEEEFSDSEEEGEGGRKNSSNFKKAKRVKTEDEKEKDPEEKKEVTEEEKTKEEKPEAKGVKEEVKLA
Summary of the method: as §1

[5] = test system: histone acetylation (HDAC1); assay: Western blot of histone H3 and H4 acetylation in RPMI8226 cells; type: cell-based; details: 24 hours, FIG. 1
Procedure: as §2

Compound | IC50 [1] | compound concentration at which tubulin acetylation (HDAC6) appeared [2] | Kp [3] | IC50 [4] | compound concentration at which histone acetylation (HDAC1) appeared [5]
Cc1c(Cc2ccc(C(=O)NO)cc2)c2ccccc2n1CC1CCN(CC(C)(C)F)CC1 [Compound 528, 4-((1-((1-(2-fluoro-2-methylpropyl)piperidin-4-yl)methyl)-2-methyl-1H-indol-3-yl)methyl)-N-hydroxybenzamide] | 74 nM | 100 nM | ≥ 0.5 | 8000 nM | at least 3 uM
CC(C)(F)CN1CCC(Cn2cc(Cc3ccc(C(=O)NO)cc3)c3cccnc32)CC1 [Compound 748, 4-((1-((1-(2-Fluoro-2-methylpropyl)piperidin-4-yl)methyl)-1H-pyrrolo[2,3-b]pyridin-3-yl)methyl)-N-hydroxybenzamide] | 140 nM |  |  | 3880 nM | 
CCCc1c(Cc2ccc(C(=O)NO)cc2)c2ccccc2n1CC1CCN(CC(C)(C)F)CC1 [Compound 602, 4-((1-((1-(2-fluoro-2-methylpropyl)piperidin-4-yl)methyl)-2-propyl-1H-indol-3-yl)methyl)-N-hydroxybenzamide] | 300 nM |  |  | > 10000 nM | 
CC(C)(F)CN1CCC(Cn2c(-c3ccncc3)c(Cc3ccc(C(=O)NO)cc3)c3ccccc32)CC1 [Compound 624, 4-((1-((1-(2-Fluoro-2-methylpropyl)piperidin-4-yl)methyl)-2-(pyridin-4-yl)-1H-indol-3-yl)methyl)-N-hydroxybenzamide] | 107 nM |  |  | 5010 nM | 
Cc1c(Cc2ccc(C(=O)NO)cc2)c2cc(F)ccc2n1CCN1CC[C@H](F)C1 [Compound 589, (S)-4-((5-fluoro-1-(2-(3-fluoropyrrolidin-1-yl)ethyl)-2-methyl-1H-indol-3-yl)methyl)-N-hydroxybenzamide] | 63 nM |  |  | 4640 nM | 
Cc1c(Cc2ccc(C(=O)NO)cc2)c2cc(F)ccc2n1CCN1CCC(F)CC1 [Compound 590, 4-((5-Fluoro-1-(2-(4-fluoropiperidin-1-yl)ethyl)-2-methyl-1H-indol-3-yl)methyl)-N-hydroxybenzamide] | 49 nM |  |  | 6120 nM | 
CC(C)(F)CN1CCC(Cn2cc(C(O)c3ccc(C(=O)NO)cc3)c3cccnc32)CC1 (centres unmarked) [Compound 747, 4-((1-((1-(2-Fluoro-2-methylpropyl)piperidin-4-yl)methyl)-1H-pyrrolo[2,3-b]pyridin-3-yl)(hydroxy)methyl)-N-hydroxybenzamide] | 334 nM |  |  | 6100 nM | 
CC(C)(F)CN1CCC(Cn2c(-c3cc(F)cc(F)c3)c(Cc3ccc(C(=O)NO)cc3)c3ccccc32)CC1 [Compound 626, 4-((2-(3,5-Difluorophenyl)-1-((1-(2-fluoro-2-methylpropyl)piperidin-4-yl)methyl)-1H-indol-3-yl)methyl)-N-hydroxybenzamide] | 587 nM |  |  | > 10000 nM | 
CC(=O)N1CCC(F)(CN2CCC(Cn3c(C)c(Cc4ccc(C(=O)NO)cc4)c4ccccc43)CC2)CC1 [Compound 612, 4-((1-((1-((1-acetyl-4-fluoropiperidin-4-yl)methyl)piperidin-4-yl)methyl)-2-methyl-1H-indol-3-yl)methyl)-N-hydroxybenzamide] | 61 nM |  |  | 9100 nM | 
Cc1c(Cc2ccc(C(=O)NO)cc2)c2cc(F)ccc2n1CC1CCN(CC(C)(C)O)CC1 [Compound 582, 4-((5-Fluoro-1-((1-(2-hydroxy-2-methylpropyl)piperidin-4-yl)methyl)-2-methyl-1H-indol-3-yl)methyl)-N-hydroxybenzamide] | 27 nM |  |  | 2460 nM | 
Cc1c(Cc2ccc(C(=O)NO)cc2)c2ccccc2n1CCN1CCCC(CO)C1 (centres unmarked) [Compound 594, N-hydroxy-4-((1-(2-(3-(hydroxymethyl)piperidin-1-yl)ethyl)-2-methyl-1H-indol-3-yl)methyl)benzamide] | 17 nM |  |  | 3140 nM | 
Cc1c(Cc2ccc(C(=O)NO)cc2)c2ccccc2n1CCN1CCOCC1 [Compound 153, N-hydroxy-4-((2-methyl-1-(2-morpholinoethyl)-1H-indol-3-yl)methyl)benzamide] | 140 nM |  |  | 4380 nM | 
Cc1c(Cc2ccc(C(=O)NO)cc2)c2cc(F)ccc2n1CCN1CC[C@H](O)C1 [Compound 587, (S)-4-((5-fluoro-1-(2-(3-hydroxypyrrolidin-1-yl)ethyl)-2-methyl-1H-indol-3-yl)methyl)-N-hydroxybenzamide] | 30 nM |  |  | 2810 nM | 
